Measured values: patent US12319681B2, “Tripartite androgen receptor eliminators, methods and uses thereof” (SPG Therapeutics, Inc., priority 2017, dated 2025)
Where two headings read alike, the source gives them in different places.

Tests used:
[1] = tested on: MDA-kb2 breast cancer cell; assay: MDA-kb2 cell viability in Example 13; type: cell-based
androgen receptor (AR) [2] = target: T1, androgen receptor (AR) (Homo sapiens, UniProt P10275); assay: Keratinocyte AR protein level ELISA (Example 10); type: cell-based; settings: 24 h, read-out: AR Reduction
T1 construct: human keratinocytes transfected with an AR luciferase reporter gene; endogenous in cells; host or cells: normal human adult primary epidermal keratinocytes (ATCC PCS-200-011)
T1 sequence (P10275 1-920): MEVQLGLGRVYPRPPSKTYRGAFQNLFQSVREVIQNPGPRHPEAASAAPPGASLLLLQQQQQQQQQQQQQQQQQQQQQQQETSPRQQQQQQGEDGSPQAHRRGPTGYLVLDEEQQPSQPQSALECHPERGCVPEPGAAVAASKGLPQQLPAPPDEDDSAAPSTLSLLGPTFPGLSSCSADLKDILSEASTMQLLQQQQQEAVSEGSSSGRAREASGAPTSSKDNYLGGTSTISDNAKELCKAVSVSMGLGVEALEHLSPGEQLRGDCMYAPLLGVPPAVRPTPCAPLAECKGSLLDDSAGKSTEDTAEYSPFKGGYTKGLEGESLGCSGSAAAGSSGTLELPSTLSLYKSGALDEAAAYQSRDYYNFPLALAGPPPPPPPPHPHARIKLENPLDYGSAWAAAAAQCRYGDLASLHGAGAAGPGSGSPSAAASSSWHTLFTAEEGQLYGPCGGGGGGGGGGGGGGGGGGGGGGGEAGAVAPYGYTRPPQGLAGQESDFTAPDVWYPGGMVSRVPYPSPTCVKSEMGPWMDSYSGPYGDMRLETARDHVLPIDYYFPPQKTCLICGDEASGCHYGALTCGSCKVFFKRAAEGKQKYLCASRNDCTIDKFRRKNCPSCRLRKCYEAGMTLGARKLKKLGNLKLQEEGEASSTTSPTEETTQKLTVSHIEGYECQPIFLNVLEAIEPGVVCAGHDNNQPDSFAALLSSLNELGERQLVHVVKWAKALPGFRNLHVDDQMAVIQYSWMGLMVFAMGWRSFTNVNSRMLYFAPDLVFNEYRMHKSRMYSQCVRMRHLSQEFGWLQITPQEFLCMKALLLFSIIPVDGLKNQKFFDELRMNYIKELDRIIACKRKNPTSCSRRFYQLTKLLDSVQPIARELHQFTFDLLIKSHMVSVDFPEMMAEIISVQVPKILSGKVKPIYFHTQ
Experimental: (§1) Each ARE tested was prepared in DMSO. […] Ethanol concentrations in media never exceeded 0.1%.
To assess levels of AR, an ELISA was performed.

androgen receptor (AR) [3] = target: T1, androgen receptor (AR); assay: Keratinocyte AR luciferase reporter gene assay (Example 10); type: cell-based; settings: 24 h, read-out: Gene Activity Reduction
Experimental: as §1
(§2) To assess ARE-mediated inhibition, an AR luciferase assay was performed. After washing cells with 1×PBS, 20 μL lysis buffer (25 mM Tris/phosphate, 4 mM EGTA, 1% Triton, 10% glycerol, 2 mM DTT) was added per well, incubated for 5 minutes with gentle shaking and store at −80° C. On the day of assay, the plates were thawed to ambient temperature and 80 μL of assay buffer (25 mM glycylglycine, 15 mM MgCl2. 5 mM ATP, 0.1 mg/ml BSA) was added to each well. Plates are then processed on a microplate reader (POLARstar Omega) by injecting 100 μL of 1 mM D-luciferin per well, followed by chemiluminescence measurement of 3 seconds at onset of injection. Luciferase activity was determined, measured, and normalized to Relative Light Units (RLU). AR reporter gene activity reduction values were calculated as follows: AR reporter gene activity=1−(average signal (treatment group)/average signal (treatment group without drug).

[4] = tested on: normal Human Adult Primary Epidermal Keratinocyte cell line; settings: 24 h
Experimental: For the Keratinocyte assay, normal Human Adult Primary Epidermal Keratinocyte cell line (ATCC PCS-200-011) was maintained in EPIUFE® Medium, with 60 μM calcium (Thermo MEPISOOCA) supplemented with Human Keratinocyte Growth Supplement, 100 U/mL penicillin, and 100 μg/mL streptomycin at 37° C. with 5% C02. For experiments, cells were seeded at 70% confluence per well in 100 μL of medium in 96-well plates. […] After 16 hours, medium was removed and replaced with dosing medium.
A 5α-Androstan-17β-ol-3-one (DHT) stock solution was prepared at 1,000× in ethanol. […] Dosing medium was prepared at the time of treatment by serial diluting stock solution into medium. Ethanol concentrations in media never exceeded 0.1%. […] Negative control wells contained 100 μL medium/well with 1 μL of ethanol/mL of medium and an appropriate amount of DMSO. Each plate also contained 1.0 nM DHT with an ARE or without an ARE as a positive control. Cells were incubated 24 hours at 37° C. without CO2.
To assess for cell viability, cells were first visually examined under a phase-contrast microscope to record cell confluence, morphological changes, and presence of drug crystallization as well as to observe signs of cytotoxity such as, e.g., detachment, vacuolization, membrane degradation, or lack of phase brightness. After microscopic inspection, a Trypan Blue exclusion assay was performed to assess cell viability and cell number for each well. Each well was washed with 0.5 mL volume of PBS. 30 µL of Trypan Blue was added to each well for 5-10 minutes. Total cell number and total viable cell number will be counted from 1 number of fields per well, in triplicate.

[5] = tested on: normal Human Adult Primary Epidermal Keratinocyte cell line; settings: 72 h
Experimental: For the Keratinocyte assay, normal Human Adult Primary Epidermal Keratinocyte cell line (ATCC PCS-200-011) was maintained in EPIUFE® Medium, with 60 μM calcium (Thermo MEPISOOCA) supplemented with Human Keratinocyte Growth Supplement, 100 U/mL penicillin, and 100 μg/mL streptomycin at 37° C. with 5% C02. For experiments, cells were seeded at 70% confluence per well in 100 μL of medium in 96-well plates. Reverse transfection was done on the cells using Lipofectamine 3000 (Life Technologies) with plasmids according to manufacturer's instructions. Briefly, 0.3 μL transfection reagent per 100 ng DNA were incubated with P3000 reagent and Opti-Mem prior to addition of cells. After 16 hours, medium was removed and replaced with dosing medium.
Each ARE tested was prepared in DMSO. Dosing medium was prepared at the time of treatment by serial diluting stock solution into medium. Ethanol concentrations in media never exceeded 0.1%. […] Negative control wells contained 100 L medium/well with 1 μL of ethanol/mL of medium and an appropriate amount of DMSO. […] Cells were incubated 72 hours at 37° C. without CO2.

androgen receptor (AR) [6] = target: T1, androgen receptor (AR); assay: Keratinocyte AR Reporter Gene Assay, 24 and 72 hours continuous exposure (Example 12); type: cell-based; settings: keratinocytes
Experimental: as §2
This example illustrates how to determine the inhibitory activity of an ARE disclosed herein using a cell-based androgen receptor transcriptional reporter assay using primary human keratinocytes.
Results were analyzed for IC50 and IC90 values in GraphPad Prism using a four-parameter logistic curve equation. Bottom constraints were set to 1 (level of uninduced control).

androgen receptor (AR) [7] = target: T2, androgen receptor (AR) (Homo sapiens, UniProt P10275); assay: MDA-kb2 AR luciferase reporter gene assay (1.0 nM DHT); type: cell-based; settings: MDA-kb2, 24 h, read-out: Gene Activity Reduction
Experimental: This example illustrates how to determine the inhibitory activity of an ARE disclosed herein using a cell-based androgen receptor transcriptional reporter assay using an engineered cell line.
as §1, §2

androgen receptor (AR) [8] = target: T2, androgen receptor (AR); assay: MDA-kb2 Assay with 0.1 nM DHT (Example 13); type: cell-based
Experimental: as §2
To determine efficacy of a compound, a MDA-kb2 assay was performed as described in Example 10. The cells were treated with compounds for 24 hours prior to measurements of reporter gene activity. […] AR luciferase assay results were analyzed using GraphPad Prism using a four-parameter logistic curve equation. Bottom constraints were set at 1 (level of uninduced control.)

human keratinocytes = assay: Keratinocyte cell viability / cytotoxicity in Example 12; type: cell-based; settings: extended treatment
androgen receptor (AR) [9] = target: T1, androgen receptor (AR); assay: Keratinocyte AR Reporter Gene Assay with washout (sustained effects); type: cell-based; settings: 7.0 μM for 24 hours
Experimental: Reporter gene activity was measured following two days or three days of additional cell culture in the absence of AR antagonists. AR reporter gene activity reduction was calculated as follows: 1−(average signal (treatment group)/(average signal (treatment group, without drug, same washout period).

`CC12CCC(=O)C=C1C[C@@H](SC(=O)CC13CC4CC(CC(C4)C1)C3)C1C2CCC2(C)C1CC[C@@]21CCC(=O)O1` (some centres unmarked) [SPG-003] showed a Cell Viability ([1]; MDA-kb2, 6 μM) of 80%, a Cell Viability ([1]; MDA-kb2, 10 μM) of 50% and an inhibition at 0.1 µM (androgen receptor (AR) [2]) of 6%. It also gave an inhibition at 1 µM (androgen receptor (AR) [2]) of 19%, an inhibition at 3 µM (androgen receptor (AR) [2]) of 26% and an inhibition at 10 µM (androgen receptor (AR) [2]) of 65%. The inhibition at 0.1 µM (androgen receptor (AR) [3]) was 21%, the inhibition at 1 µM (androgen receptor (AR) [3]) was 31% and the inhibition at 3 µM (androgen receptor (AR) [3]) was 50%. The inhibition at 10 µM (androgen receptor (AR) [3]) was 93%, the “Cell Viability” value ([4]; 0.1 μM) was 93% and the “Cell Viability” value ([4]; 1 μM) was 93%. The “Cell Viability” value ([4]; 3 μM) was 94%, the “Cell Viability” value ([4]; 10 μM) was 93% and the “Cell Viability” value ([5]; 0.62 μM) was 92.16 ± 1.30. The “Cell Viability” value ([5]; 1.85 μM) was 73.46 ± 1.11, the “Cell Viability” value ([5]; 5.56 μM) was 66.12 ± 3.09 and the “Cell Viability” value ([5]; 16.67 μM) was 55.11 ± 0.16. For the same compound, the “Cell Viability” value ([5]; 50 μM) was 38.67 ± 2.25, the IC50 (androgen receptor (AR) [6]; 24-hr Treatment) was 3.68 µM and the IC90 (androgen receptor (AR) [6]; 24-hr Treatment) was 6.96 µM. The “Maximum Inhibition” value (androgen receptor (AR) [6]; 24-hr Treatment) was 91%, the IC50 (androgen receptor (AR) [6]; 24-hr treatment) was 3.7 µM and the IC90 (androgen receptor (AR) [6]; 24-hr treatment) was 7 µM. For the same compound, the IC50 (androgen receptor (AR) [6]; 72-hour treatment) was 2.5 µM, the IC90 (androgen receptor (AR) [6]; 72-hour treatment) was 5.7 µM and the IC50 (androgen receptor (AR) [6]; 72-hr Treatment) was 2.57 µM. The IC90 (androgen receptor (AR) [6]; 72-hr Treatment) was 5.68 µM, the “Maximum Inhibition” value (androgen receptor (AR) [6]; 72-hr Treatment) was 93% and the “inhibition of AR reporter gene activity (in words)” value (androgen receptor (AR) [6]; 24 and 72 hours) was “dose-dependent inhibition”. The inhibition at 0.1 µM (androgen receptor (AR) [7]) was 8%, the inhibition at 1 µM (androgen receptor (AR) [7]) was 20% and the inhibition at 3 µM (androgen receptor (AR) [7]) was 40%. The inhibition at 10 µM (androgen receptor (AR) [7]) was 90%, the IC50 (androgen receptor (AR) [8]; MDA-kb2, 0.1 nM DHT, 24 hours) was 0.789 µM and the IC90 (androgen receptor (AR) [8]; MDA-kb2, 0.1 nM DHT, 24 hours) was 2.71 µM. The “Maximum Inhibition” value (androgen receptor (AR) [8]; MDA-kb2, 0.1 nM DHT, 24 hours) was 95%, the “dose-dependent inhibition of AR reporter gene activity (in words)” value (androgen receptor (AR) [8]; MDA-kb2, reduced DHT levels (0.1 nM)) was “dose-dependent inhibition” and the “cell cytotoxicity (in words)” value (human keratinocytes) was “minimal”. For the same compound, the “AR reporter gene activity reduction” value (androgen receptor (AR) [9]; Washout Period 0 days) was 89 ± 1.0% and the “AR reporter gene activity reduction” value (androgen receptor (AR) [9]; Washout Period 2 days) was 64 ± 0.3%.
